We go through one compound from patent US20060194814A1, “Benzamide compounds” (priority 2003, published 2006).

Structures can show the parent of a compound that is named as a salt. Where two headings read alike, the source gives them in different places.

The test system of assay [1] is multi-drug resistant HIV MDR-769 strain. The assay can be described thus: HIV MDR 769 strain replication in HeLa cells, without pre-medication. It counts as cell-based.
For assay [2], the system named is H295R human adrenal tumor cells. The assay can be described thus: dbcAMP-induced cortisol synthesis in H295R cells. It is filed as cell-based. On the procedure:
Culture media were then changed and cells were stimulated with 1 mM dbcAMP and the treatment for 24 to 48 hours. […] The synthesis of 20 —OH progesterone and progesterone in Y1 and MA-10 cell media respectively were measured by RIA (Brown et al., 1992). H295R human adrenal tumor cells were seeded in 48-well plates at 10^5 cells/well and incubated for 24 hours. […] At the end of the incubation time period, cells were treated with 1 mM dbcAMP for 48 hours. Cortisol levels in the media were determined by radioimmunoassay as previously described (Amri et al., 1996).

Assay [3] has as its system steroidogenesis acute regulatory protein (StAR). Briefly: Immunoblot of StAR protein in Y1 cells. It is filed as cell-based, mouse. To be noted: 1 μM procaine, 48 hour treatment. On the procedure: At the end of the treatment protocol described above, Y1 cells at 90% confluency were washed 2 times with PBS, sonicated 15 seconds in extraction buffer and centrifuged at 18,500 g for 15 minutes at 4° C. Pellets were resuspended in ice-cold lysis buffer (1% Nonidet 40 in extraction buffer), sonicated briefly, and incubated on ice for 1 hour. After centrifugation (22,500 g×30 min, 4° C.), the supernatant was mixed in sample buffer 6× (0.27 M SDS, 0.6 M dithiothreitol, 0.18 M bromphenol blue in 7 ml of 0.5 M Tris-HCl, pH 6.8, and 3 ml glycerol) and boiled for 5 minutes. Proteins were subjected to SDS-PAGE (4-20% gradient SDS polyacrylamide gel) and electrophoretically transferred onto nitrocellulose membranes. The transblot sheets were blocked with 5% non fat dry milk in 25 mM Tris HCl, pH 7.5, 150 mM NaCl, and 0.1% Tween 20 overnight at 4° C. Membranes were then incubated with appropriately diluted primary antibodies 1:800 for anti-P-450scc (Research Diagnostics Inc. Flanders, N.J.) and 1:200 for anti-StAR (Amri et al., 1996), and the reaction was detected by a peroxidase-conjugated secondary antibody (Santa Cruz Biotechnology, Santa Cruz, Calif.) and enhanced chemiluminescence (Amersham Life, Arlington Heights, Ill.). The densities of the appropriate bands were determined using the OptiQuant Acquisition & Analysis software (Packard BioScience).

The next assay has as its system HMG-CoA reductase. Briefly: HMG-CoA reductase activity in procaine-treated Y1 cells. It is filed as cell-based, mouse. The arrangement: percent inhibition of HMG-CoA reductase activity: unit of the concentration uncertain. On the procedure:
Cells were washed twice with ice-cold PBS and incubated with ice-cold assay buffer (0.1M sucrose, 40 mM KH2PO4, 30 mM EDTA, 50 mM KCl, 5 mM DTT, 0.25% (v/v) of Brij 96, at pH 7.4) on ice for 20 minutes. After centrifugation for 3 minutes at 14000 g (4° C.) the supernatants were collected and used for HMG-CoA reductase activity assay. […] The reaction was started by adding substrate (^14C-HMG-CoA, 0.1 Ci) and stopped after 45 minutes by adding 10-1 of HCl 6M. ^3H-mevalonolactone was also added to the samples as an extraction recovery marker. After an additional 30 minutes incubation time, to allow complete lactonization of the product, the mixture was centrifuged.

In a further assay the test system is HMG-CoA reductase mRNA. The assay can be described thus: HMG-CoA reductase mRNA expression by Q-PCR in UT-1 cells. It is filed as cell-based, Chinese hamster. On the procedure: After treatment, cells were stimulated with 1 mM dbcAMP for 24 hours. At the end of the incubation, total cell RNA was extracted using RNA STAT-60 (Tel-Test Inc, Friendswood, Tex.) according to the manufacturer's instructions. HMG-CoA reductase mRNA was quantified by Q-PCR using the ABI Prism 7700 sequence detection system (Perkin-Elmer/Applied Biosystems, Foster City, Calif.). RT reaction was performed using TaqMan® Reverse Transcription Reagents with 1 g total RNA and random hexamers as primers for each reaction according to the manufacturer's instructions. For quantifying mouse HMG-CoA reductase mRNA with Q-PCR, the primers were designed according to GenBank Accession Number BC 019782 using PE/AB Primer Express software, which is specifically designed for the selection of primers and probes. The forward primer was 5′-[…]-3′ (22 nucleotides; SEQ ID NO:1) and reverse primer was 5′-[…]-3′ (23 nucleotides; SEQ ID NO:2), respectively. The primers were synthesized by Bio-Synthesis Inc. (Lewisville, Tex.). Reactions were performed in a reaction mixture consisting of a 20 l volume solution containing 10 l SYBR® Green PCR Master Mix and 1 l primers mix (5 M each) with 2 l cDNA.

As to `CCN(CC)CCOC(=O)c1ccc(N)cc1` [SP01, procaine HCl], the “effect on HIV MDR 769 strain replication” value in assay [1] was “effectively blocked”; in assay [1] (concentrations higher than 1 nM), “not effective”. In addition, the “inhibition of HIV MDR 769 viral replication” value in assay [1] (concentrations up to 1 nM) amounted to 75%. Besides, the “effect on dbcAMP-stimulated cortisol production” value in assay [2] is “inhibited the dbcAMP-stimulated cortisol production in a dose-dependent manner”. In addition, the “effect on basal cortisol production” value in assay [2] (basal) is on record as “without effecting basal cortisol production”. The “effect on levels of the mature 30 kDa StAR protein” value in assay [3] is “did not affect”. The “percent inhibition of HMG-CoA reductase activity” value with HMG-CoA reductase (concentration 1 (unit uncertain)) is on record as 44%; in the assay with HMG-CoA reductase (concentration 10 (unit uncertain)), 72%; in the assay on HMG-CoA reductase (concentration 100 (unit uncertain)), 70. Also, the “concentration giving maximal inhibition of HMG-CoA reductase activity” value in the assay with HMG-CoA reductase (dbcAMP stimulated) was found to be 10 µM. Besides, the “effect on HMG-CoA reductase mRNA expression” value with HMG-CoA reductase mRNA was “not significant”.
